Data reported in US20190105337A1, “METHODS OF TREATING BACTERIAL INFECTIONS” (priority 2015, published 2019).

Assays:
clinical [1] = conditions: human, in vivo; for clearance: Plasma Clearance; for Vd: Vss
Protocol: The combination of both drugs was administered on day 7. All drugs were infused over 3 hours. Plasma and urine samples were obtained and assayed using validated HPLC/MS methods.

clinical [2] = conditions: human, in vivo; for clearance: Plasma Clearance; for Vd: Vss; remark: listed apart in the source
Protocol: All infusions were administered over 3 hours. Intensive plasma and urine PK sampling was obtained after dosing and assayed using validated HPLC/MS methods.

[3] = human, in vivo
Protocol: Forty one subjects were enrolled in 5 groups based on their degree of renal insufficiency. The five cohorts included: patients with normal renal function (CrCl≥90 ml/min), mild renal impairment (CrCl 60-89 ml/min), moderate renal impairment (CrCl 30-<60 ml/min), severe renal impairment (CrCl<30 ml/min, and patients with end stage renal disease requiring hemodialysis. Patients on renal replacement therapy other than standard hemodialysis (including continuous veno-venous hemofiltration, continuous veno-venous hemodialysis and continuous renal replacement therapy) were not studied.

Plasma protein binding = assay type: in vitro ADME
[4] = Example 6: noncompartmental plasma pharmacokinetics after third dose of the Combination (2 g meropenem/2 g Compound I q8h); conditions: for Vss / clearance / Cmax / Tmax: Compound I 2 g q8h; for AUC(0-t) / clearance / Cmax / Tmax / half-life: both, human, plasma, intravenous; for AUC(0-t): AUC0-8, Compound I 2 g q8h; for clearance: CL; for half-life: t1/2, Compound I 2 g q8h
Protocol: A total of twenty-five (n=25) male and female subjects who met the study entry criteria and completed all phases of the pharmacokinetic study were included in this pharmacokinetic analysis. […] Blood samples were collected to measure drug concentrations in plasma prior to (time 0), and at 1.5, 2.95, 3.083, 3.25, 3.5, 4, 6, and 8 hours after the start of a 3-hour intravenous infusion of the third combination dose.
(Reports MC14B-0013, MC14B-0015, MC14I-011, and MC14I-0012). The urea concentrations in plasma and BAL were performed with a microplate-based method with an 0-phthalaldehyde chromogenic solution at MicroConstants, Inc., San Diego, Calif.
Peak plasma concentration (Cmax) and time to Cmax (Tmax) were read from the observed plasma concentration-time profile after the start of the intravenous infusion of the third Combination dose. Area under the plasma concentration-time curve over 8 hours (AUC0-8) after the third dose was calculated with the linear-log trapezoidal rule (WinNonlin®, version 6.3, Pharsight Corporation, Cary, N.C.). The elimination rate constant (β) was determined by nonlinear least-squares regression. Elimination half-life (t½) was calculated by dividing β into the natural logarithm of two.

[5] = In vitro hollow fiber model: pharmacokinetic parameters of meropenem and Compound I in the central compartment (Tables E, F); conditions: combination Compound I/meropenem (Table F)
Protocol: In Vitro PK-PD Model: Six medium sized hollow-fiber cartridges (FiberCell Systems) were used per experiment. Three strains studied in duplicate were used for each experiment. Log-phase cells were inoculated and incubated for 2 hours prior to the start of treatment to achieve about 10^8 CFU/mL. Target PK parameters are listed in Tables E and F. The exposures were based on the published literatures disclosed in Example 2. Samples were collected from the central compartment for the determination of drug concentrations over a 32 hour period and were analyzed using an LC-MS/MS method.

AUC(0-inf) (clinical [1]; 250 mg): 17.5 µg·h/mL | Cmax (clinical [1]; 250 mg): 5200 ng/mL | half-life (clinical [1]; 250 mg): 1.18 h | clearance (clinical [1]; 250 mg): 245 mL/min | Vd (clinical [1]; 250 mg): 23.1 L | AUC(0-inf) (clinical [1]; 1000 mg): 77.6 µg·h/mL | Cmax (clinical [1]; 1000 mg): 22000 ng/mL | half-life (clinical [1]; 1000 mg): 1.56 h | clearance (clinical [1]; 1000 mg): 222 mL/min | Vd (clinical [1]; 1000 mg): 21.4 L | AUC(0-inf) (clinical [1]; 1500 mg): 124 µg·h/mL | Cmax (clinical [1]; 1500 mg): 37200 ng/mL | half-life (clinical [1]; 1500 mg): 1.21 h | clearance (clinical [1]; 1500 mg): 206 mL/min | Vd (clinical [1]; 1500 mg): 19.4 L | AUC(0-inf) (clinical [2]; 250 mg): 17.5 µg·h/mL | Cmax (clinical [2]; 250 mg): 5200 ng/mL | half-life (clinical [2]; 250 mg): 1.18 h | clearance (clinical [2]; 250 mg): 245 mL/min | Vd (clinical [2]; 250 mg): 23.1 L | AUC(0-inf) (clinical [2]; 1000 mg): 77.6 µg·h/mL | Cmax (clinical [2]; 1000 mg): 22000 ng/mL | half-life (clinical [2]; 1000 mg): 1.56 h | clearance (clinical [2]; 1000 mg): 222 mL/min | Vd (clinical [2]; 1000 mg): 21.4 L | AUC(0-inf) (clinical [2]; 1500 mg): 124 µg·h/mL | Cmax (clinical [2]; 1500 mg): 37200 ng/mL | half-life (clinical [2]; 1500 mg): 1.21 h | clearance (clinical [2]; 1500 mg): 206 mL/min | Vd (clinical [2]; 1500 mg): 19.4 L | non-renal clearance [3]: no measurable non-renal clearance | fraction unbound (Plasma protein binding): 0.67 | Vss ([4]; 1.5-hour BAL Sampling Group): 18.6 ± 2.3 L | Vss ([4]; 3.25-hour BAL Sampling Group): 17.3 ± 2.3 L | Vss ([4]; 4-hour BAL Sampling Group): 16.9 ± 0.9 L | Vss ([4]; 6-hour BAL Sampling Group): 18.1 ± 3.9 L | Vss ([4]; 8-hour BAL Sampling Group): 17.0 ± 3.3 L | Vss ([4]; All Subjects): 17.6 ± 2.6 L | AUC(0-t) ([4]; 1.5-hour BAL Sampling Group): 184 ± 38.6 µg·h/mL | AUC(0-t) ([4]; 3.25-hour BAL Sampling Group): 210 ± 32.2 µg·h/mL | AUC(0-t) ([4]; 4-hour BAL Sampling Group): 214 ± 35.4 µg·h/mL | AUC(0-t) ([4]; 6-hour BAL Sampling Group): 216 ± 33.7 µg·h/mL | AUC(0-t) ([4]; 8-hour BAL Sampling Group): 198 ± 36.6 µg·h/mL | AUC(0-t) ([4]; All Subjects): 204 ± 34.6 µg·h/mL | clearance ([4]; 1.5-hour BAL Sampling Group): 188 mL/min | clearance ([4]; 3.25-hour BAL Sampling Group): 162 mL/min | clearance ([4]; 4-hour BAL Sampling Group): 158 mL/min | clearance ([4]; 6-hour BAL Sampling Group): 158 mL/min | clearance ([4]; All Subjects): 168 mL/min | Cmax ([4]; 1.5-hour BAL Sampling Group): 56100 ± 13000 ng/mL | Cmax ([4]; 3.25-hour BAL Sampling Group): 59700 ± 5800 ng/mL | Cmax ([4]; 4-hour BAL Sampling Group): 60100 ± 5700 ng/mL | Cmax ([4]; 6-hour BAL Sampling Group): 60900 ± 9700 ng/mL | Cmax ([4]; 8-hour BAL Sampling Group): 57900 ± 8800 ng/mL | Cmax ([4]; All Subjects): 59000 ± 8400 ng/mL | Tmax ([4]; 1.5-hour BAL Sampling Group): 2.95 ± 0.01 h | Tmax ([4]; 3.25-hour BAL Sampling Group): 3 ± 0.07 h | Tmax ([4]; 4-hour BAL Sampling Group): 2.98 ± 0.06 h | Tmax ([4]; 6-hour BAL Sampling Group): 3 ± 0.07 h | Tmax ([4]; 8-hour BAL Sampling Group): 2.98 ± 0.06 h | Tmax ([4]; All Subjects): 2.98 ± 0.06 h | half-life ([4]; 1.5-hour BAL Sampling Group): 1.18 ± 0.08 h | half-life ([4]; 3.25-hour BAL Sampling Group): 1.26 ± 0.23 h | half-life ([4]; 4-hour BAL Sampling Group): 1.34 ± 0.26 h | half-life ([4]; 6-hour BAL Sampling Group): 1.37 ± 0.27 h | half-life ([4]; 8-hour BAL Sampling Group): 1.18 ± 0.16 h | half-life ([4]; All Subjects): 1.27 ± 0.21 h | AUC, Average Compound I Actual [5]: 105.3 µg·h/mL | Cmax, Average Compound I Actual [5]: 26400 ng/mL | Half-Life, Average Compound I Actual [5]: 1.5 h
SMILES: O=C(O)C[C@@H]1CC[C@H](NC(=O)Cc2cccs2)B(O)O1 [Compound I]
